Results on 1 compound are retold here after PMC9311615 (Antibiotics, 2022).

Like-named read-outs stand apart in the source and are kept apart here.

Data set [1] is described as follows: Population pharmacokinetic model (NONMEM), one-compartment first-order elimination. As to the method:
Basic model building was performed using the building subset (n = 94), through PsN-controlled NONMEM iterative runs. One- and two- compartment models with first-order elimination, parametrized in terms of drug Cl and Vd, were evaluated. Residual error was described using additive, proportional or mixed error models. Models were compared based on the following aspects: (1) minimization of the OFV; (2) standard errors and confidence intervals of parameter estimates, calculated for each model through NONMEM correlation matrices and PsN-controlled bootstrap method; (3) goodness-of-fit plots generated with Xpose4 [24]; (4) plausibility of parameter estimates, according to the literature.
The preliminary covariate screening was performed through several Xpose4 functions, which are as follows: (1) graphic analysis of covariate-covariate plots to exclude redundancies, (2) graphic analysis of parameters-covariate plots, (3) generalized additive model (GAM) to search for the covariates that minimized the most of Akaike’s information criterion (AIC) value. Covariate model building was based on the least absolute shrinkage and selection operator method, which is automated within the “lasso” Perl command [17]. Further insights on covariates effect were collected with the same methods, after the second patient enrollment round.
The final model was validated both with internal and external approaches. The former one was performed through the following steps: (1) a visual predictive check (VPC), namely a concentration-time plot, where the mean and 5th and 95th percentile of real data are superimposed to the respective descriptive measures of simulated concentrations; (2) a numeric predictive check, which assesses abnormal trends in the DV/iPRED ratio for different statistical confidence intervals; (3) a bootstrap of the model, which calculates the bias between final parameters estimates and the means estimated through 1500 further runs of the same model, based on a random resampling from the same dataset; (4) calculation of η- and ε-shrinkage, as described in the following equations:(3) ηshrink=1−stdev(ηest)/ω (4) εshrink=1−stdev(IWRES)

The next data set relates to E. faecium. To be noted: Monte-Carlo on Dvorchik's pop-PK model, cited from earlier work.
Data set [2] in a line: Daptomycin plasma concentrations, routine TDM, HPLC-UV. The settings on record: for Daptomycin plasma concentration 1 h, mean ± SD: peak; for Daptomycin plasma concentration 23.5 h, mean ± SD: trough.
Method: This work was conducted in the framework of DAPTOLIN, an observational retrospective study approved by the Ethics Committee of the Azienda OspedalieroUniversitaria Pisana (AOUP protocol number 55945). […] Patients with incomplete medical records were excluded. […] After the first round, in which 134 patients were included, the dataset was split in 2 subsets through an iterative stratified sampling procedure [21]. The covariates considered for subset balancing were sex, weight, CrCl (calculated through the Cockroft-Gault equation), serum albumin and serum total protein concentration. During the second round, 22 further patients were included, to reach a total of 156 included patients.
Venous blood samples were collected in heparinized tubes and centrifuged immediately after. The extracted plasma was then stored at −20 °C until subsequent analysis.
The quantification technique was based on the novel HPLC-UV method developed and described by Luci and colleagues [22]. Briefly, plasma samples were firstly purified using a 95:5 v/v mixture of acetonitrile and 85% H3PO4, to induce protein precipitation. Samples were then vortexed for 30 s and centrifuged at 7700 rpm for 15 min. […] The mobile phase, composed of a 54:46 v/v mixture of 20 mM KH2PO4 and acetonitrile at pH 3.2, was pumped in the HPLC system at a 1 mL/min flowrate, while the chromatographic column temperature was kept at 35 °C. These conditions allowed the optimal separation of analytes in a 10 min-long chromatographic run.
Where [3] appears, read: daily dose 6–7 mg/kg, n = 96 patients.
[4] abbreviates: daily dose 8–9 mg/kg, n = 32 patients.
Setting [5] is: daily dose 10–11 mg/kg, n = 8 patients.

The Vd is a proportionality between amount in the body and measured concentration, not a real space. Read a high Vd as extensive tissue distribution. The clearance is the rate of elimination divided by the concentration. Read a low clearance as a low capacity for elimination. Take `CCCCCCCCCC(=O)N[C@@H](Cc1c[nH]c2ccccc12)C(=O)N[C@H](CC(N)=O)C(=O)N[C@@H](CC(=O)O)C(=O)N[C@@H]1C(=O)NCC(=O)N[C@@H](CCCN)C(=O)N[C@@H](CC(=O)O)C(=O)N[C@H](C)C(=O)N[C@@H](CC(=O)O)C(=O)NCC(=O)N[C@H](CO)C(=O)N[C@@H]([C@H](C)CC(=O)O)C(=O)N[C@@H](CC(=O)c2ccccc2N)C(=O)O[C@@H]1C` [Daptomycin]: in data set [1] (1500-samples bootstrap), the “Cl (θ1), bootstrap mean” value came out at 0.631 L/h; the “V (θ2), bootstrap mean” value is listed as 10.935 L; the “kCrCl (θ5), bootstrap mean” value was determined as 0.128; the “kSex (θ6), bootstrap mean” value is −2.484. In data set [1] (human, in vivo), this compound showed a Vd of 10.9 L and a clearance of 10.6 mL/min. Further, the “CFR against E. faecium reported by Turnidge et al.” value in the data set with E. faecium (8 mg/kg × MIC 2) is listed as 80.4%. In the data set on E. faecium (10 mg/kg × MIC 2), the “CFR against E. faecium reported by Turnidge et al.” value was 92.9%. In addition, the “Daptomycin plasma concentration 1 h, mean ± SD” value in data set [2] (daily dose 12 mg/kg, n = 4 patients) is reported as 80.0 ± 25.7. Besides, the “Daptomycin plasma concentration 23.5 h, mean ± SD” value in data set [2] (daily dose 4–5 mg/kg, n = 15 patients) was 11.4 ± 8.7. In data set [2] (setting [3]), the “Daptomycin plasma concentration 1 h, mean ± SD” value is on record as 59.3 ± 18.0 and the “Daptomycin plasma concentration 23.5 h, mean ± SD” value is reported as 17.8 ± 11.0. Moreover, in data set [2] (setting [4]), the “Daptomycin plasma concentration 1 h, mean ± SD” value was 74.4 ± 51.3 and the “Daptomycin plasma concentration 23.5 h, mean ± SD” value was determined as 15.5 ± 10.7. Moreover, in data set [2] (setting [5]), the “Daptomycin plasma concentration 1 h, mean ± SD” value turned out to be 69.8 ± 21.7 and the “Daptomycin plasma concentration 23.5 h, mean ± SD” value was 25.4 ± 14.1.
